# Test results reported in patent publication US9738644B2, “Chemical compounds, compositions and methods for kinase modulation” (Infinity Pharmaceuticals, Inc., priority 2010, dated 2017).
# Legend:
# PI3K α = biological target: T1, PI3K α (Homo sapiens, UniProt P42336); test: In vitro PI3K α inhibition assay; assay type: biochemical
# T1 construct: purchased Upstate
# Procedure: (§1) Class I PI3-Ks can be either purchased (p110α/p85α, p110β/p85α, p110δ/p85α from Upstate, and p110γ from Sigma) or expressed as previously described (Knight et al., 2004). IC50 values are measured using either a standard TLC assay for lipid kinase activity (described below) or a high-throughput membrane capture assay. Kinase reactions are performed by preparing a reaction mixture containing kinase, inhibitor (2% DMSO final concentration), buffer (25 mM HEPES, pH 7.4, 10 mM MgCl2), and freshly sonicated phosphatidylinositol (100 μg/ml). Reactions are initiated by the addition of ATP containing 10 μCi of γ-32P-ATP to a final concentration of 10 or 100 μM and allowed to proceed for 5 minutes at room temperature. For TLC analysis, reactions are then terminated by the addition of 105 μl 1N HCl followed by 160 μl CHCl3:MeOH (1:1). The biphasic mixture is vortexed, briefly centrifuged, and the organic phase is transferred to a new tube using a gel loading pipette tip precoated with CHCl3. This extract is spotted on TLC plates and developed for 3-4 hours in a 65:35 solution of n-propanol:1M acetic acid. The TLC plates are then dried, exposed to a phosphorimager screen (Storm, Amersham), and quantitated. For each compound, kinase activity is measured at 10-12 inhibitor concentrations representing two-fold dilutions from the highest concentration tested (typically, 200 μM).
# (§2) Other commercial kits or systems for assaying PI3-K activities are available. The commercially available kits or systems can be used to screen for inhibitors and/or agonists of PI3-Ks including, but not limited to, PI 3-Kinase α, β, δ, and γ. An exemplary system is PI 3-Kinase (human) HTRF™ Assay from Upstate. […] Briefly, the assay is a time resolved FRET assay that indirectly measures PIP3 product formed by the activity of a PI3-K. The kinase reaction is performed in a microtiter plate (e.g., a 384 well microtiter plate). The total reaction volume is approximately 20 μl per well. In the first step, each well receives 2 μl of test compound in 20% dimethylsulphoxide resulting in a 2% DMSO final concentration. Next, approximately 14.5 μl of a kinase/PIP2 mixture (diluted in 1× reaction buffer) is added per well for a final concentration of 0.25-0.3 μg/ml kinase and 10 μM PIP2. The plate is sealed and incubated for 15 minutes at room temperature. To start the reaction, 3.5 μl of ATP (diluted in 1× reaction buffer) is added per well for a final concentration of 10 μM ATP. The plate is sealed and incubated for 1 hour at room temperature. The reaction is stopped by adding 5 μl of Stop Solution per well and then 5 μl of Detection Mix is added per well. The plate is sealed, incubated for 1 hour at room temperature, and then read on an appropriate plate reader. Data is analyzed and IC50s are generated using GraphPad Prism 5.
# Balb/c splenic B cells = test: B cell activation and proliferation assay (Alamar Blue); assay type: cell-based; conditions: Mus musculus, read-out: B cell proliferation EC50
# Procedure: The ability of one or more subject compounds to inhibit B cell activation and proliferation is determined according to standard procedures known in the art. For example, an in vitro cellular proliferation assay is established that measures the metabolic activity of live cells. The assay is performed in a 96 well microtiter plate using Alamar Blue reduction. Balb/c splenic B cells are purified over a Ficoll-Paque™ PLUS gradient followed by magnetic cell separation using a MACS B cell Isolation Kit (Miletenyi). Cells are plated in 90 μl at 50,000 cells/well in B Cell Media (RPMI+10% FBS+Penn/Strep+50 μM bME+5 mM HEPES). A compound disclosed herein is diluted in B Cell Media and added in a 10 μl volume. Plates are incubated for 30 min at 37° C. and 5% CO2 (0.2% DMSO final concentration). A 50 μl B cell stimulation cocktail is then added containing either 10 μg/ml LPS or 5 μg/ml F(ab′)2 Donkey anti-mouse IgM plus 2 ng/ml recombinant mouse IL4 in B Cell Media. Plates are incubated for 72 hours at 37° C. and 5% CO2. A volume of 15 μL of Alamar Blue reagent is added to each well and plates are incubated for 5 hours at 37° C. and 5% CO2. Alamar Blue fluoresce is read at 560Ex/590Em, and IC50 or EC50 values are calculated using GraphPad Prism 5.
# PI3K δ = biological target: T2, PI3K δ (Homo sapiens, UniProt O00329); test: In vitro PI3K δ inhibition assay; assay type: biochemical
# T2 construct: purchased Upstate
# T2 sequence (O00329 whole entry): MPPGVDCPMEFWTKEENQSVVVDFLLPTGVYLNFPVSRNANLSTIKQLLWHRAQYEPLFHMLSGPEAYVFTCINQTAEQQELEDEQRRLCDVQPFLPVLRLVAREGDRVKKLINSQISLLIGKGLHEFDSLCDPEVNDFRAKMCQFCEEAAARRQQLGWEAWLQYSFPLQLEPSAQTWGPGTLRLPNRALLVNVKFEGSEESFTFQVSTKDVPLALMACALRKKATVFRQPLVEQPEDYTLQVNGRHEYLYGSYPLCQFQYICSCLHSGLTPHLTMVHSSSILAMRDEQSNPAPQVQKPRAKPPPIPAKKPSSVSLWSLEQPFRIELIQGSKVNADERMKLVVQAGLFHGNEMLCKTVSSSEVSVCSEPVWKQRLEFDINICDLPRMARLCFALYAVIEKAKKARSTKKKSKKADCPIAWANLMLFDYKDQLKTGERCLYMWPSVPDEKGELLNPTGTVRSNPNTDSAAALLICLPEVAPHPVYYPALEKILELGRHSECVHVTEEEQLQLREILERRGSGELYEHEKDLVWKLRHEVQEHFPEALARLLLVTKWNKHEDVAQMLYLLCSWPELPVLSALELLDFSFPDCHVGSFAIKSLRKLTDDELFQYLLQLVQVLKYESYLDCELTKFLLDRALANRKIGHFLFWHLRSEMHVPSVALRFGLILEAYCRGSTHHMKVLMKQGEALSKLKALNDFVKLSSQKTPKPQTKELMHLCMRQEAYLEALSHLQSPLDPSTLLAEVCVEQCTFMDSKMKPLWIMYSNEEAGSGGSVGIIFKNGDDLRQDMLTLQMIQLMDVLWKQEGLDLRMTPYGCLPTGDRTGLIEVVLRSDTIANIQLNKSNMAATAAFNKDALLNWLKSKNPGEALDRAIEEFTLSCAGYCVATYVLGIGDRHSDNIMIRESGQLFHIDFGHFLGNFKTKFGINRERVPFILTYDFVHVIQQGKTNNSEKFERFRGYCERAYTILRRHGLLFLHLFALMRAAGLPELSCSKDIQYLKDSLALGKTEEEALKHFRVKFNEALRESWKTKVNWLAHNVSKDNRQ
# T2 sequence (P27986 whole entry partner): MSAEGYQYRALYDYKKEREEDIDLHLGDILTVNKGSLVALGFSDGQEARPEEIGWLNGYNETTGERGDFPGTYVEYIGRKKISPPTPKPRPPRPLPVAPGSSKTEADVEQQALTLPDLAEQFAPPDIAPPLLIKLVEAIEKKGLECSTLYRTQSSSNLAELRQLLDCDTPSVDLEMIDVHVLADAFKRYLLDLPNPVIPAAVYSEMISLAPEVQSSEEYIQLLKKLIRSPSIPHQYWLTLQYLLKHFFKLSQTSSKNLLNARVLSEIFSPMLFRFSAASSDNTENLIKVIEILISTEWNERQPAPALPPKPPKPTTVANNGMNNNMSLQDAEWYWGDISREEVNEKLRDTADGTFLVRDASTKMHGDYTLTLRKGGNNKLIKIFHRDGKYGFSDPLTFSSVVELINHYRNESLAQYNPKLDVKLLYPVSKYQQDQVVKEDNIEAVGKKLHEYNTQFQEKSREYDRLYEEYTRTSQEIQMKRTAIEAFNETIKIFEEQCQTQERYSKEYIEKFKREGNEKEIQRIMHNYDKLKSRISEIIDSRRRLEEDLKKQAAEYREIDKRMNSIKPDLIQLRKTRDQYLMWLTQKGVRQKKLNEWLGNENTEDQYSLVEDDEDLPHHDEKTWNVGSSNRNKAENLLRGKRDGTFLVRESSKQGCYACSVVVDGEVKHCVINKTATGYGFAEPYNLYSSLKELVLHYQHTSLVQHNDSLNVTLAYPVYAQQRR
# Procedure: (§3) Class I PI3-Ks can be either purchased (p110α/p85α, p110β/p85α, p110δ/p85α from Upstate, and p110γ from Sigma) or expressed as previously described (Knight et al., 2004). IC50 values are measured using either a standard TLC assay for lipid kinase activity (described below) or a high-throughput membrane capture assay. Kinase reactions are performed by preparing a reaction mixture containing kinase, inhibitor (2% DMSO final concentration), buffer (25 mM HEPES, pH 7.4, 10 mM MgCl2), and freshly sonicated phosphatidylinositol (100 μg/ml). Reactions are initiated by the addition of ATP containing 10 μCi of γ-32P-ATP to a final concentration of 10 or 100 μM and allowed to proceed for 5 minutes at room temperature. For TLC analysis, reactions are then terminated by the addition of 105 μl 1N HCl followed by 160 μl CHCl3:MeOH (1:1). The biphasic mixture is vortexed, briefly centrifuged, and the organic phase is transferred to a new tube using a gel loading pipette tip precoated with CHCl3. This extract is spotted on TLC plates and developed for 3-4 hours in a 65:35 solution of n-propanol:1M acetic acid. The TLC plates are then dried, exposed to a phosphorimager screen (Storm, Amersham), and quantitated. For each compound, kinase activity is measured at 10-12 inhibitor concentrations representing two-fold dilutions from the highest concentration tested (typically, 200 μM). […] Other commercial kits or systems for assaying PI3-K activities are available. The commercially available kits or systems can be used to screen for inhibitors and/or agonists of PI3-Ks including, but not limited to, PI 3-Kinase α, β, δ, and γ. An exemplary system is PI 3-Kinase (human) HTRF™ Assay from Upstate. […] Briefly, the assay is a time resolved FRET assay that indirectly measures PIP3 product formed by the activity of a PI3-K. The kinase reaction is performed in a microtiter plate (e.g., a 384 well microtiter plate). The total reaction volume is approximately 20 μl per well. In the first step, each well receives 2 μl of test compound in 20% dimethylsulphoxide resulting in a 2% DMSO final concentration. Next, approximately 14.5 μl of a kinase/PIP2 mixture (diluted in 1× reaction buffer) is added per well for a final concentration of 0.25-0.3 μg/ml kinase and 10 μM PIP2. The plate is sealed and incubated for 15 minutes at room temperature. To start the reaction, 3.5 μl of ATP (diluted in 1× reaction buffer) is added per well for a final concentration of 10 μM ATP. The plate is sealed and incubated for 1 hour at room temperature. The reaction is stopped by adding 5 μl of Stop Solution per well and then 5 μl of Detection Mix is added per well. The plate is sealed, incubated for 1 hour at room temperature, and then read on an appropriate plate reader. Data is analyzed and IC50s are generated using GraphPad Prism 5.
# PI3K γ = biological target: T3, PI3K γ (Homo sapiens, UniProt P48736); test: In vitro PI3K γ inhibition assay; assay type: biochemical
# T3 construct: purchased Sigma
# T3 sequence (P48736 whole entry): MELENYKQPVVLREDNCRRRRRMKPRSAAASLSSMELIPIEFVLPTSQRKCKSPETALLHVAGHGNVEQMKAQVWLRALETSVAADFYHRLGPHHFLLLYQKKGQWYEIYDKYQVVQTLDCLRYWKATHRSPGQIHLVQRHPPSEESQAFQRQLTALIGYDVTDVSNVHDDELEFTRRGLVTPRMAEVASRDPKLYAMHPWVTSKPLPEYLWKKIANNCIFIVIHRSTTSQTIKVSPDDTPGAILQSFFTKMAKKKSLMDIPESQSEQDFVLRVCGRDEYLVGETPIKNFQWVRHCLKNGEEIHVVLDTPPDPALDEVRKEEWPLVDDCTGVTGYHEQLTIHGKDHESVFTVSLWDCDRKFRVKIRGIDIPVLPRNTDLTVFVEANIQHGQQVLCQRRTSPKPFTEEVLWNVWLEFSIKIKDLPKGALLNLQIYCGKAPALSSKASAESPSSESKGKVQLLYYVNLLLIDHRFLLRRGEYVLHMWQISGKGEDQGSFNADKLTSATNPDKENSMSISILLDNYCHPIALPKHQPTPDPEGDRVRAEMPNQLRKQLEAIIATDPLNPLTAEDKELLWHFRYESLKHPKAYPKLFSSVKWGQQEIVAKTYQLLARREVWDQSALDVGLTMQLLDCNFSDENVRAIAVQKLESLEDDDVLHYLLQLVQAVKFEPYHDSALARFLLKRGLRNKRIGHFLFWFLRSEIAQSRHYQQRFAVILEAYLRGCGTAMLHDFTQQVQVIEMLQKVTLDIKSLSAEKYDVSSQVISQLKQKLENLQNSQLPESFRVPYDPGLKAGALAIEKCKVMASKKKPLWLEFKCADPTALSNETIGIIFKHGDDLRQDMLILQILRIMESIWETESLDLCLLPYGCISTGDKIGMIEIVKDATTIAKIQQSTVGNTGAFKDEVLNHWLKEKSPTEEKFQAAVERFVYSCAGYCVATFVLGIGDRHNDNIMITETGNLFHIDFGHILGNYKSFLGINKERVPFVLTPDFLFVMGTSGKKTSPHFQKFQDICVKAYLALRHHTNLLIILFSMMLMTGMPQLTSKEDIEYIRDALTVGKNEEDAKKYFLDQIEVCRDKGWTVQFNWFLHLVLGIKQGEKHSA
# Procedure: as §3
# PI3K β = biological target: T4, PI3K β (Homo sapiens, UniProt P42338); test: In vitro PI3K β inhibition assay; assay type: biochemical
# T4 construct: purchased Upstate
# T4 sequence (P42338 whole entry): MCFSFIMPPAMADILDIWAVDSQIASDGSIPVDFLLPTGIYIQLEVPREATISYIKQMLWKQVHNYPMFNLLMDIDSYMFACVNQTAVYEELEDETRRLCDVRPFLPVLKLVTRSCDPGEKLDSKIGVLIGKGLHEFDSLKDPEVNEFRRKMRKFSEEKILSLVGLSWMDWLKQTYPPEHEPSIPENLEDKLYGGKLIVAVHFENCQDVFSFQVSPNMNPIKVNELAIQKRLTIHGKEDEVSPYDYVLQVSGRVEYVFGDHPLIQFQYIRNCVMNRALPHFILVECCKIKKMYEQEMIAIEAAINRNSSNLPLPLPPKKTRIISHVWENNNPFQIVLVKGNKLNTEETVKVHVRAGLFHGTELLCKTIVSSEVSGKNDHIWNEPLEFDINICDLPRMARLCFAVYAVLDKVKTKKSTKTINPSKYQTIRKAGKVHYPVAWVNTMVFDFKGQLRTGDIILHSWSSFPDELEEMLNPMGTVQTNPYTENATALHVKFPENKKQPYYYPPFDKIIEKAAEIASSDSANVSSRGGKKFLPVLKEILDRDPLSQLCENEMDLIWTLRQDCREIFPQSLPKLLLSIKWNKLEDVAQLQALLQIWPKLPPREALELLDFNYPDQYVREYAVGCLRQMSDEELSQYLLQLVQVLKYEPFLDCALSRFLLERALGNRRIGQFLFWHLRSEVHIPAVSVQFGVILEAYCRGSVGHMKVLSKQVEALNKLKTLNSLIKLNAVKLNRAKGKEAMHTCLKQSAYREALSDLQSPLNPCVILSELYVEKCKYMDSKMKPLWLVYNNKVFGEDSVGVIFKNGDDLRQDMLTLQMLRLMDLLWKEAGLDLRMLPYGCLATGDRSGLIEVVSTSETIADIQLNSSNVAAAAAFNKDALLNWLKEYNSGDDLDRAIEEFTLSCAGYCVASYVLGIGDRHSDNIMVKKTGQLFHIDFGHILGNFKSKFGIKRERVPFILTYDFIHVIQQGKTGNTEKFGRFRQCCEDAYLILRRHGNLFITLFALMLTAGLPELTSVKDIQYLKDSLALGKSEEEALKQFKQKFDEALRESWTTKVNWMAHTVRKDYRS
# T4 sequence (P27986 whole entry partner): as the sequence (P27986 whole entry partner) above
# Procedure: as §1, §2
# T1 sequence (P42336 whole entry): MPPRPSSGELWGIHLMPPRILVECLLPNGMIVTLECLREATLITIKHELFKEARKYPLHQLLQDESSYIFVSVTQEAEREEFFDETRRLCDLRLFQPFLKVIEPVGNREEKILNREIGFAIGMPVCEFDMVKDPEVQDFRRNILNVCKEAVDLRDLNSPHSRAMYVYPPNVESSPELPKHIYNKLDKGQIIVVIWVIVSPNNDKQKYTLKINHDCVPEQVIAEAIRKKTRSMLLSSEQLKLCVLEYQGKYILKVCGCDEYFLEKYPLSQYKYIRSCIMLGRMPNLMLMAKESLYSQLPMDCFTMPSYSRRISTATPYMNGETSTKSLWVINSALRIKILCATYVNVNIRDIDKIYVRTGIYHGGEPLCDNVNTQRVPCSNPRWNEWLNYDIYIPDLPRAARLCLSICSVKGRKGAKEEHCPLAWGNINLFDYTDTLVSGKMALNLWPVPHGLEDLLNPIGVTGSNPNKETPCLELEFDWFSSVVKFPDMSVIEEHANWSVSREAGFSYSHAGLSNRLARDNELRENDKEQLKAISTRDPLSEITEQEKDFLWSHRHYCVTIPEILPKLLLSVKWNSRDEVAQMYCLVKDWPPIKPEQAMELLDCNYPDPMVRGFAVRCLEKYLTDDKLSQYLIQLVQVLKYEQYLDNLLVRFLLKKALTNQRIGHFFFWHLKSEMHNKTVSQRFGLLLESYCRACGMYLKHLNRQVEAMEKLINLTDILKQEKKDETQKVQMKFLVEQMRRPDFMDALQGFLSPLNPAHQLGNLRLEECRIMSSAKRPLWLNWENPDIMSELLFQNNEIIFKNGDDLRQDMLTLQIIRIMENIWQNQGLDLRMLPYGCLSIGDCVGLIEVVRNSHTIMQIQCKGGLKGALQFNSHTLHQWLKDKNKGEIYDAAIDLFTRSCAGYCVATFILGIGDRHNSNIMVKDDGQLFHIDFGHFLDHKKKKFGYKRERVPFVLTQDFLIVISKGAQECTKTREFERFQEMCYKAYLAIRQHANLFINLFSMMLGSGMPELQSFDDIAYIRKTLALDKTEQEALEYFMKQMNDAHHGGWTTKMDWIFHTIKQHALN
# T1 sequence (P27986 whole entry partner): as the sequence (P27986 whole entry partner) above
SMILES,IC50 (PI3K α) [nM],EC50 (Balb/c splenic B cells) [µM],IC50 (PI3K δ) [nM],IC50 (PI3K γ) [nM],IC50 (PI3K β) [nM]
C[C@H](Nc1ncnn2ccnc12)c1cc2cccc(-c3cnn(C)c3)c2c(=O)n1-c1ccccc1 [Compound 52],< 10000,< 0.1,,,
C[C@H](Nc1nc(N)ncc1C(F)(F)F)c1cc2cccc(-c3cnn(C)c3)c2c(=O)n1-c1ccccc1 [Compound 68],,< 0.1,,,
C[C@@H](Nc1ncnc2[nH]cnc12)c1cc2cccc(N3CCOCC3)c2c(=O)n1-c1ccccc1 (stereo in doubt) [Compound 39],> 10000,,< 1000,< 1000,> 10000
C[C@H](Nc1ncnc2[nH]cnc12)c1cc2cccc(-c3cnn(C)c3)c2c(=O)n1-c1cccc(F)c1 [Compound 45],< 10000,< 0.1,,,
COc1ncc(-c2cccc3cc([C@H](C)Nc4ncnc5[nH]cnc45)n(-c4ccccc4)c(=O)c23)cn1 [Compound 76],< 10000,,,< 10000,
C[C@H](Nc1ncnc2[nH]cc(C#N)c12)c1cc2cccc(-c3cnn(C)c3)c2c(=O)n1-c1ccccc1 [Compound 56],,< 0.1,,,< 10000
Cc1cc(-c2cccc3cc([C@H](C)Nc4ncnc5[nH]cnc45)n(-c4ccccc4)c(=O)c23)ccn1 [Compound 41],,< 0.1,,,< 10000
C[C@H](Nc1nc(N)ncc1C#N)c1cc2cccc(-c3cnn(C)c3)c2c(=O)n1C1CC1 [Compound 72],< 10000,,,,
C[C@H](Nc1ncnc2[nH]cc(C(N)=O)c12)c1cc2cccc(-c3cnn(C)c3)c2c(=O)n1-c1ccccc1 [Compound 58],< 10000,,,,< 10000
C[C@H](Nc1ncnc2[nH]cnc12)c1cc2cccc(-c3cnn(C)c3)c2c(=O)[nH]1 [Compound 50],,,< 10000,,
C[C@H](Nc1nc(N)nc2[nH]cnc12)c1cc2cccc(-c3cnn(C)c3)c2c(=O)n1-c1ccccc1 [Compound 36],,< 0.1,,,< 10000
"C[C@H](Nc1ncnc2[nH]cnc12)c1cc2cccc(N3CCCC3)c2c(=O)n1-c1ccccc1 [Compound 4, (S)-3-(1-((9H-purin-6-yl)amino)ethyl)-2-phenyl-8-(pyrrolidin-1-yl)isoquinolin-1 (2H)-one]",,< 1,< 10000,< 10000,
C[C@H](Nc1nc(N)ncc1C(F)(F)F)c1cc2cccc(-c3cnn(C)c3)c2c(=O)n1C1CC1 [Compound 67],,< 0.1,,,
C[C@H](Nc1nc(N)nc2[nH]cnc12)c1cc2cccc(-c3cccnc3)c2c(=O)n1-c1ccccc1 [Compound 38],,,,,< 10000
Cc1ccc(-c2cccc3cc([C@H](C)Nc4ncnc(N)n4)n(-c4ccccc4)c(=O)c23)cn1 [Compound 34],,< 1,,< 10000,
Cc1cnn(-c2cccc3cc([C@H](C)Nc4ncnc5[nH]cnc45)n(-c4ccccc4)c(=O)c23)c1 [Compound 30],,< 1,,< 10000,
Cc1ccc(-c2cccc3cc([C@H](C)Nc4nc(N)nc5[nH]cnc45)n(-c4ccccc4)c(=O)c23)cn1 [Compound 37],,< 0.1,,,< 10000
"C[C@H](Nc1ncnc2[nH]cnc12)c1cc2cccc(N3CCN(C)CC3)c2c(=O)n1-c1ccccc1 [Compound 5, (S)-3-(1-((9H-purin-6-yl)amino)ethyl)-8-(4-methylpiperazin-1-yl)-2-phenylisoquinolin-1(2H)-one]",,< 0.1,,,
Cc1cn(-c2cccc3cc([C@H](C)Nc4ncnc5[nH]cnc45)n(-c4ccccc4)c(=O)c23)cn1 [Compound 31],,< 0.1,,< 10000,
C[C@H](Nc1ncnc2[nH]cc(F)c12)c1cc2cccc(-c3cnn(C)c3)c2c(=O)n1C1CC1 [Compound 62],< 10000,< 0.1,,,< 10000
"C[C@H](Nc1ncnc(N)n1)c1cc2cccc(-c3cnn(C)c3)c2c(=O)n1-c1ccccc1 [Compound 33, 3-((S)-1-(4-amino-1,3,5-triazin-2-ylamino)ethyl)-8-(1-methyl-1H-pyrazol-4-yl)-2-phenylisoquinolin-1(2H)-one]",,< 0.1,,< 10000,
C[C@H](Nc1ncnn2cncc12)c1cc2cccc(-c3cnn(C)c3)c2c(=O)n1-c1ccccc1 [Compound 54],,,< 10000,,
C[C@H](Nc1ncnc2[nH]cnc12)c1cc2cccc(-c3cccnc3)c2c(=O)[nH]1 [Compound 49],,< 0.1,,,
C[C@H](Nc1ncnc(N)c1C#N)c1cc2cccc(-c3cnn(C)c3)c2c(=O)n1-c1ccccc1 [Compound 73],< 10000,,,,
C[C@@H](Nc1ncnc2[nH]cnc12)c1cc2cccc(NC3CCOCC3)c2c(=O)n1-c1ccccc1 (stereo in doubt) [Compound 40],> 10000,,< 1000,< 10000,> 10000
C[C@H](Nc1ncnc2[nH]cnc12)c1cc2cccc(-n3cccn3)c2c(=O)n1-c1ccccc1 [Compound 29],,< 1,,< 10000,
Cc1ccc(-c2cccc3cc([C@H](C)Nc4ncnc5[nH]cnc45)n(-c4ccccc4)c(=O)c23)cn1 [Compound 27],< 10000,< 0.1,,,
